Measurements taken from publication PMC8840040, “Pharmacokinetic Characterization of the DDAH1 Inhibitors ZST316 and ZST152 in Mice Using a HPLC-MS/MS Method” (Molecules, 2022).
Like-named read-outs stand apart in the source and are kept apart here.

Tests used:
human recombinant DDAH1 = tested on: human recombinant DDAH1; design: method as in PMID 26420019; conditions: cited from earlier work; for IC50 / Ki: human recombinant DDAH1 expressed in HEK293T cells; for IC50: read-out: IC50 towards DDAH1; for Ki: read-out: Ki towards DDAH1
[1] = Tolerability of chronic intraperitoneal treatment (clinical signs, body weight); assay type: in vivo; conditions: i.p. 30 mg/Kg/day for three weeks
Procedure: (§1) In this study, 18 mice received a single dose and were sampled within 24 h, and the other 18 were treated every day for three weeks (qdx21) and sampled on day 21. Mice were monitored daily for clinical signs of toxicity and distress, and body weight was measured at least twice a week. Blood samples were collected after both treatment regimens at 15 and 30 min, and 1, 3, 8, and 24 h post dose. Three mice were analyzed for each time point. After the animals were anesthetized with isoflurane, the blood was drained from the retro-orbital plexus into heparinized tubes, and then centrifuged for 10 min at 4000 g at 4 °C to separate plasma. A 24-h urine fraction was collected in three mice for each drug and route of administration. Plasma and urine samples were stored at −20 °C until analysis by HPLC-MS/MS.

[2] = Plasma pharmacokinetics and urinary elimination after acute and chronic intraperitoneal administration; assay type: in vivo, FVB mice
Procedure: as §1
Reversed-phase chromatography was performed using a series 200 HPLC system (Perkin Elmer, Waltham, MA, USA) under gradient conditions with separation on a HILIC column, 3 µm, 100 A, 2.1 × 150 mm (Waters, Milford, MA, USA), coupled with a 3 µm, 3.9 × 5.0 mm guard column of the same material at the flow rate of 0.2 mL/min. Gradient features: 10% mobile phase (MP) A (NH4HCO2 10 mM, 10% CH3CN, 0.1% HCOOH) and 90% MP B (CH3CN, 0.1% HCOOH) as the initial constant condition; then to 90% MP A in 6 min and the constant condition for 1.5 min. Return to the start condition in 0.5 min and conditioning for 5.5 min. Total run time: 13.5 min. Mass spectrometric detection was performed using an API 4000 triple quadrupole mass spectrometer (SCIEX, Framingham, MA, USA) supplied with a Turbo Ion Spray source set at 350 °C and −4200 V, analyzing biological samples with electrospray ionization (ESI) operating in negative ion mode. Purified air was used as nebulizer gas (Gas 1) and heater gas (Gas 2) and N2 was used as curtain gas and collision activated dissociation gas. They were set to 40, 50, 20, and 4 instrument units (psi), respectively. The declustering potential (DP) was set at −119 V and the collision exit potential (CXP) at –10 V. All parameters of the source were defined by direct infusion of ZST316 and ZST152 1 µg/mL in mobile phase B. The final quantification was carried out in Selected Reaction Monitoring (SRM) with the following transitions: m/z 307.9 → 208.0 (collision energy of −29.5 eV) for ZST316 and m/z 271.9 → 170.9 (collision energy −24.7 eV) for ZST152 (Figure 2 and Figure 3). Data were processed with the software package Analyst 1.6.2 (AB SCIEX).
Pharmacokinetic parameters and descriptive statistics (means, standard deviations, percentages) were calculated using Phoenix WinNonlin V 8.3 (Certara Inc., Princeton, NJ, USA).

[3] = FVB, mouse, plasma, ip, i.p. 30 mg/Kg, acute
[4] = FVB, mouse, plasma, ip, i.p. 30 mg/Kg/day, chronic

Which results are given for COCCNC(=N)NCCC[C@H](N)c1noc(=O)[nH]1 [ZST152]?
IC50 (human recombinant DDAH1): 18 µM; Ki (human recombinant DDAH1): 7 µM

Which results are given for COCCNC(=N)NCCC[C@H](N)C(=O)NS(C)(=O)=O [ZST316]?
tolerability of chronic treatment [1]: well tolerated; body weight during treatment vs. untreated animals ([1]; 30 mg/kg/day): no changes in body weight vs. untreated animals; clinical signs of toxicity or distress ([1]; 30 mg/kg/day): no clinical signs of toxicity or distress were noticed; IC50 (human recombinant DDAH1): 3 µM; Ki (human recombinant DDAH1): 1 µM; greater inhibitory activity towards DDAH1 compared to reference inhibitor L-257 (human recombinant DDAH1; vs L-257): 13 fold; AUC(0-t) ([2]; FVB, mouse, plasma, ip, 30 mg/kg, i.p. 30 mg/Kg, acute, read-out: AUC 0-8h): 14300 ng·h/mL; AUC(0-t) ([2]; FVB, mouse, plasma, ip, 30 mg/kg, i.p. 30 mg/Kg, acute, read-out: AUC 0-last): 14400 ng·h/mL; AUC(0-t) ([2]; FVB, mouse, plasma, ip, 30 mg/kg/day, i.p. 30 mg/Kg/day, chronic, read-out: AUC 0-8h): 12300 ng·h/mL; AUC(0-t) ([2]; FVB, mouse, plasma, ip, 30 mg/kg/day, i.p. 30 mg/Kg/day, chronic, read-out: AUC 0-last): 12600 ng·h/mL; AUC(0-inf) [2, 3]: 14500 ng·h/mL; Tmax [2, 3]: 15 min; half-life [2, 3]: 342 min; Cmax ([2]; FVB, mouse, plasma, ip, i.p. 30 mg/Kg, acute (single dose)): 40200 ng/mL; bioavailability ([2]; FVB, mouse, plasma, ip, i.p. 30 mg/Kg, acute, read-out: F % (bioavailability)): 67%; Cmax at 21 days ([2]; FVB, mouse, plasma, ip, i.p. 30 mg/Kg/day for three weeks, chronic (day 21)): 33600 ng/mL; AUC(0-inf) [2, 4]: 12700 ng·h/mL; Tmax [2, 4]: 15 min; half-life [2, 4]: 504 min; bioavailability at 21 days ([2]; FVB, mouse, plasma, ip, i.p. 30 mg/Kg/day, chronic, read-out: F % (bioavailability)): 59%; 24-h urinary excretion (% of dose) ([2]; i.p. 30 mg/Kg, acute): 56.1 % of dose; urinary excretion, % of the administered dose ([2]; i.p. 30 mg/Kg, acute/chronic not distinguished): 55%; accumulation after chronic treatment ([2]; i.p. 30 mg/Kg/day for three weeks, 30 mg/kg/day): no accumulation was observed; 24-h urinary excretion (% of dose) ([2]; i.p. 30 mg/Kg/day, chronic): 54.1 % of dose
